This is an account of results in patent US8933245B2, “Preservation of ergothioneine” (ELC Management LLC, priority 2009, dated 2015).

Several values for one entry are separate records, joined by “and”; a condition that tells them apart may be missing. Equal values may be shown once.

A short description of series [1]: Formation of fishy amine odor by boiling ergothioneine with sodium hydroxide or other components. In kind it is physicochemical. As to the method: This became the assay system used to test agents and procedures for reduction or prevention of the odor.
Four samples of a 5 ml ergothioneine solution at 0.1% (w/v) were prepared in glass test tubes with screw caps. To the first was added 5 ml of water, to the second 5 ml of 0.2% (w/v) sodium metabisulfite, to the third 4 ml of water and 1 ml of 1N sodium hydroxide, and to the fourth 5 ml of 0.2% (w/v) citric acid. […] The samples were boiled for 10 minutes and each one was smelled.
This allowed the testing of methods to inhibit the formation of the odor and to suppress the odor after formation.

Series [2] is described as follows: Preventing trimethylamine odor by addition of compounds before heating ergothioneine with sodium hydroxide. In kind it is physicochemical. The following applies: for % EGT (w/v): boiled 10 minutes, HPLC. As to the method:
Samples were prepared in glass tubes with screw caps with about 0.05% (w/v) ergothioneine in water, a test sample, at the indicated concentration, and 0.1N NaOH (except for the first tube, in which NaOH was omitted as a negative control). The pH of each sample was determined by litmus paper, and then the tubes capped and placed in a boiling water bath for 10 minutes. The tubes were then cooled to room temperature, and then each one was uncapped and smelled by three testers, each of whom scored the odor. The scores were converted to a scale of 0 (no odor) to 3 (strong fishy trimethylamine odor) and then averaged.

The conditions of series [3]: cited from earlier work; for Ka: acid listed with one ionized form.
The nature of series [4]: Stability of ergothioneine during storage with and without citric acid (HPLC). It counts as physicochemical. The following applies: percent of starting concentration, 2 mM in water; for % EGT with citric acid: 0.2% citric acid. As to the method: The samples were stored at 4° C., 25° C. or 40° C. for 30 or 60 days and then analyzed by HPLC. Each vial was used once and then discarded. Each measurement was made in triplicate and the results averaged. A standard curve of ergothioneine concentration was constructed at each time point to quantify the amount of ergothioneine in each vial. Each amount in Table 2 is expressed as percentage of the amount measured in the initial sample at the start of the experiment.

Series [5] is described as follows: Stability of ergothioneine solution at acidic pH on heating. To be noted: 0.05% solution, pH 5, heating 40 C for 60 days. In kind it is physicochemical. The text has this: It has been observed that ergothioneine is quite stable at acidic pH. At pH 5 a 0.05% solution remains within 1% of its concentration after heating 40 C for 60 days. However, the reports of its stability in alkali are mixed in the literature. See, for example, Philip Hartman. “Ergothioneine as antioxidant”, Methods Enzymol. 186:310-318, 1990 at p. 311 (“ . . . the sulfur atom of Ergothioneine is remarkably stable to alkali”); H. Heath and G. Toennies. “The preparation and properties of Ergothioneine disulphide”, J. Chem. Soc. pages 204-210, (1958) at p. 204 (“the sulphur is completely unaffected by boiling 50% aqueous potassium hydroxide.”); Oxis International, Inc. Compound Monograph “L-Ergothioneine. Revision III”, at p. […] “Synthesis of L-(+)-Ergothioneine”, J. Org. Chem. 60:6296-6301, 1995 at p. 6296 (“this explains its stability toward oxidative dimerization”).

A short description of series [6]: Formation of yellow addition product of ergothioneine and sodium metabisulfite. It counts as physicochemical. As to the method:
The vials were sealed and mixing the samples was avoided. The samples were incubated and color development observed. The solutions were examined at 1 hour, and the optical density at 405 nm was measured at 2 hours (Table 9).
The cap was removed and the solution was then shaken for 3 to 4 minutes and ambient air was bubbled through it to drive out the dissolved sulfur dioxide gas. […] Therefore the loss of ergothioneine after addition of sodium metabisulfite is due to formation of an addition product which is reversible, and the ergothioneine is not permanently lost.

Experiment in series [7]: as above
To be noted: 1.25% ergothioneine and 5% sodium metabisulfite; cap removed, shaken, ambient air bubbled; after 6 to 7 minutes. In kind it is physicochemical.

The mark [8] stands for this setting: test sample 0.01%, about 0.05% ergothioneine, 0.1N NaOH, litmus paper.
Setting [9] is: test sample 0.05%, about 0.05% ergothioneine, 0.1N NaOH, litmus paper.
[10] abbreviates: test sample 0.2%, about 0.05% ergothioneine, 0.1N NaOH, litmus paper.
Setting [11] is: ergothioneine 1.25%, sodium metabisulfite 5.0%.
The mark [12] stands for this setting: ergothioneine 1.25%, sodium metabisulfite 7.5%.
Setting [13] is: ergothioneine 1.25%, sodium metabisulfite 10%.
The mark [14] stands for this setting: ergothioneine 1.25%, sodium metabisulfite 12.5%.
[15] abbreviates: ergothioneine 1.25%, sodium metabisulfite 15%.
The mark [16] stands for this setting: ergothioneine 1.25%, sodium metabisulfite 17.5%.
The mark [17] stands for this setting: ergothioneine 1.25%, sodium metabisulfite 20%.
The mark [18] stands for this setting: ergothioneine 1.25%, sodium metabisulfite 22.5%.
[19] abbreviates: ergothioneine 1.25%, sodium metabisulfite 25%.
Setting [20] is: ergothioneine 1.25%, sodium metabisulfite […].
The mark [21] stands for this setting: ergothioneine […], sodium metabisulfite 0.

With `O=C(O)CC(O)(CC(=O)O)C(=O)O` [citric acid], the pH is 5 in series [1]; 8 and 10 in series [2]. The “% EGT (w/v)” value in series [2] (test sample 0.01%, 0.1N NaOH) was 0.052 % (w/v); in series [2] (test sample 0.05%, 0.1N NaOH), 0.053 % (w/v); in series [2] (test sample 0.2%, 0.1N NaOH), 0.054 % (w/v).
Take `O=P(O)(O)O` [phosphoric acid]: the “% EGT (w/v)” value is on record as 0.052 % (w/v) in series [2] (test sample 0.01%, 0.1N NaOH); 0.054 % (w/v) in series [2] (test sample 0.05%, 0.1N NaOH); 0.058 % (w/v) in series [2] (test sample 0.2%, 0.1N NaOH).
`O=C1O[C@H]([C@@H](O)CO)C(O)=C1O` [ascorbic acid]: the “% EGT (w/v)” value in series [2] (test sample 0.01%, 0.1N NaOH) is recorded as 0.050 % (w/v); in series [2] (test sample 0.05%, 0.1N NaOH) it was 0.050 % (w/v); in series [2] (test sample 0.2%, 0.1N NaOH), 0.047 % (w/v). Also, the results for the pH in series [2] (setting [8]), in series [2] (setting [9]) and in series [2] (setting [10]) were 10.5, 10.5 and 5, respectively.
`[Na+].[OH-]` [sodium hydroxide]: the pH result in series [1] is given as “approximately 10”.
In the case of `CC(=O)O` [acetic acid], the “% EGT (w/v)” value in series [2] (test sample 0.01%, 0.1N NaOH) is on record as 0.050 % (w/v); in series [2] (test sample 0.05%, 0.1N NaOH), 0.052 % (w/v); in series [2] (test sample 0.2%, 0.1N NaOH), 0.052 % (w/v). For the same molecule, the pH in series [2] (setting [8]) was found to be 10.5; in series [2] (setting [9]), 8; in series [2] (setting [10]), 4. For the same molecule, the Ka in series [3] is given as 1.74E−5.
`OB(O)O` [boric acid]: the pH in series [2] was 8.5 and 10 and 10.5. Moreover, the “% EGT (w/v)” value is listed as 0.050 % (w/v) in series [2] (test sample 0.01%, 0.1N NaOH); 0.051 % (w/v) in series [2] (test sample 0.05%, 0.1N NaOH); 0.052 % (w/v) in series [2] (test sample 0.2%, 0.1N NaOH).
Consider `CCCCCCC(=O)O` [heptanoic acid], for which the Ka in series [3] is listed as 1.29E−5.
On to `C[N+](C)(C)[C@@H](Cc1c[nH]c(=S)[nH]1)C(=O)[O-]` [ergothioneine], for which the “% EGT with citric acid” value in series [4] (4° C., 30 days) was 101.6%; in series [4] (4° C., 60 days), 105.8%; in series [4] (25° C., 30 days), 101.5%; in series [4] (25° C., 60 days), 102.2%; in series [4] (40° C., 30 days), 101.1%; in series [4] (40° C., 60 days) it was 99.6%. The “% EGT without citric acid” value was 96.1% in series [4] (4° C., 30 days); 106.5% in series [4] (4° C., 60 days); 84.0% in series [4] (25° C., 30 days); 100.5% in series [4] (25° C., 60 days); 86.3% in series [4] (40° C., 30 days); 99.8% in series [4] (40° C., 60 days). Moreover, the change of concentration in series [5] is on record as not above 1%. In addition, the color of solution entry in series [6] (1.25% ergothioneine and 5% sodium metabisulfite, one week at room temperature in a capped tube) was “intense lemon yellow”. Besides, the “Color description at 1 h” value in series [6] (setting [11]) is given as “Near colorless”; in series [6] (setting [12]), “Yellow tinge”; in series [6] (setting [13]) it was “Slight yellow”; in series [6] (setting [14]), “Light yellow”; in series [6] (setting [15]), “Yellow”; in series [6] (setting [16]) it was “Yellow”. Moreover, the “Color description at 1 h” value was “Light lemon yellow” in series [6] (setting [17]); “Intense lemon yellow” in series [6] (setting [18]); “Intense lemon yellow” in series [6] (setting [19]); “Colorless” in series [6] (setting [20]); “Colorless” in series [6] (setting [21]). The “OD405 at 2 hr” value in series [6] (setting [11]) came to 0.104; in series [6] (setting [12]), 0.186; in series [6] (setting [13]), 0.265; in series [6] (setting [14]), 0.456; in series [6] (setting [15]), 0.593; in series [6] (setting [16]) it was 0.966. Further, the “OD405 at 2 hr” value in series [6] (setting [17]) was 1.993; in series [6] (setting [18]) it was 2.873; in series [6] (setting [19]) it was 3.126; in series [6] (setting [20]), 0.044; in series [6] (setting [21]), 0.004. For the same molecule, the “color of solution after driving out sulfur dioxide” value in series [7] was “nearly colorless with a yellow tinge”.
As to `O=S(O)O` [sulfurous acid], the “Ka (1)” value in series [3] (first ionized form) is 1.41E−2. Moreover, the “Ka (2)” value in series [3] (second ionized form) was 6.31E−8.
In the case of `O=S([O-])S(=O)(=O)[O-].[Na+].[Na+]` [sodium metabisulfite], the pH in series [1] (litmus paper, before boiling, 5 ml 0.1% ergothioneine plus 5 ml addition) worked out at 5; in series [2] (setting [8]), 10; in series [2] (setting [9]), 9.5; in series [2] (setting [10]), 6.5. Moreover, the “% EGT (w/v)” value in series [2] (test sample 0.01%, 0.1N NaOH) was 0.044 % (w/v); in series [2] (test sample 0.05%, 0.1N NaOH) it was 0.037 % (w/v); in series [2] (test sample 0.2%, 0.1N NaOH) it was 0.029 % (w/v). Moreover, the “time to apparent reduction in the amount of ergothioneine (HPLC)” value in series [6] (after addition of sodium metabisulfite, room temperature without boiling) is not above 10 min.
In the case of `Cl` [Hydrochloric acid], the “% EGT (w/v)” value is 0.050 % (w/v) in series [2] (test sample 0.0001%, 0.1N NaOH) and 0.050 % (w/v) in series [2] (test sample 0.01%, 0.1N NaOH). For the same molecule, the pH amounted to 11.5 in series [2] (test sample 0.0001%, about 0.05% ergothioneine, 0.1N NaOH, litmus paper) and 10 in series [2] (setting [8]).
For the molecule `CCCCC(=O)O` [pentanoic acid], in series [3], the Ka is on record as 3.31E−5.
As for `O=c1[nH]c(=O)c2[nH]c(=O)[nH]c2[nH]1` [uric acid], the Ka in series [3] is 1.29E−4.
